Laboratory results: US8017772B2, “Substituted tetrahydropyrrolopyrazine compounds and the use thereof in the treatment and/or inhibition of pain” (Gruenenthal GmbH, priority 2006, dated 2011)

target: T1, hKCNQ2/3 (Homo sapiens, UniProt O43525+O43526); experiment: Voltage clamp (patch-clamp) measurements on stably transfected hKCNQ2/3 CHO-K1 cell line; format: cell-based; details: potential −40 mV, relative to retigabine (RG = 1)
Experimental: Voltage Clamp Measurements
In order to confirm a KCNQ2/3-agonistic action of the substances electrophysiologically, patch-clamp measurements (Hamill et al., 1981) were carried out in voltage clamp mode on a stably transfected hKCNQ2/3 CHO-K1 cell line. After formation of the gigaseal, the cells were first clamped at a holding potential of −60 mV. Thereafter, depolarizing voltage jumps were applied up to a potential of +20 mV (increment: 20 mV, duration: 1 second) in order to confirm the functional expression of KCNQ2/3-typical currents. The testing of the substances was carried out at a potential of −40 mV. The increase in current induced by retigabine (10 at −40 mV was first recorded as a positive control on each cell. After complete washing out of the retigabine effect (duration: 80 s), the test substance was applied. • See: Hamill O P, Marty A, Neher E, Sakmann B, Sigworth F J.: Improved patch-clamp techniques for high-resolution current recording from cells and cell-free membrane patches. Pflugers Arch. 1981 August; 391(2):85-100.

Compound | MAN rel eff @ 10 μM [RG = 1]
CC(NC(=O)CCC(=O)N1CCn2cccc2C1c1ccccc1)c1cccc(C(F)(F)F)c1 (centres unmarked) [Example 81, 4-oxo-4-(1-phenyl-3,4-dihydropyrrolo[1,2-a]pyrazin-2(1H)-yl)-N-(1-(3-(trifluoromethyl)phenyl)ethyl)butanamide] | 0.25
CC(NC(=O)CCC(=O)N1CCn2cccc2C1c1cccs1)c1cccc(C(F)(F)F)c1 (centres unmarked) [Example 82, 4-oxo-4-(1-(thiophen-2-yl)-3,4-dihydropyrrolo[1,2-a]pyrazin-2(1H)-yl)-N-(1-(3-(trifluoromethyl)phenyl)ethyl)butanamide] | 0.11
O=C(CC(=O)N1CCn2cccc2C1c1ccccc1)Nc1cccc(C(F)(F)F)c1 (centres unmarked) [Example 90] | −0.46

target: T1, hKCNQ2/3; experiment: Fluorescence assay using a voltage sensitive dye (BMG); format: cell-based; details: CHO-K1 cells expressing KCNQ2/3
Experimental: 11. Biological Data 12. Fluorescence Assay Using a Voltage Sensitive Dye
Human CHO-K1 cells expressing KCNQ2/3 channels are cultivated adherently at 37° C., 5% CO2 and 95% humidity in cell culture bottles (e.g. 80 cm^2 TC flasks, Nunc) with MEM Alpha Medium (1×, liquid, Invitrogen, #22571), 10% fetal calf serum (FCS) (Invitrogen, #10270-106, heat-inactivated) and the necessary selection antibiotics.
Before being sown out for the measurements, the cells are washed with a 1×DPBS buffer without Ca^2+/Mg^2+ (e.g. Invitrogen, #14190-094) and detached from the bottom of the culture vessel by means of Accutase (PAA Laboratories, #L11-007) (incubation with Accutase for 15 min at 37° C.). The cell count then present is determined using a CASY™ cell counter (TCC model, Schärfe System) in order subsequently to apply 20,000 cells/well/100 μl of the described nutrient medium to 96-well measuring plates of the Corning™ CellBIND™ type (Flat Clear Bottom Black Polystyrene Microplates, #3340). Incubation is then carried out for one hour at room temperature, without gassing or adjusting the humidity, followed by incubation for 24 hours at 37° C., 5% CO2 and 95% humidity.
The voltage-sensitive fluorescent dye from the Membrane Potential Assay Kit (Red™ Bulk format part R8123 for FLIPR, Molecular Devices™) is prepared by dissolving the contents of a vessel Membrane Potential Assay Kit Red Component A in 200 ml of extracellular buffer (ES buffer, 120 mM NaCl, 1 mM KCl, 10 mM HEPES, 2 mM CaCl2, 2 mM MgCl2, 10 mM glucose; pH 7.4). After removal of the nutrient medium, the cells are washed with 200 μl of ES buffer, then covered with a layer of 100 μl of the dye solution prepared above and incubated for 45 min at room temperature with the exclusion of light.
The fluorescence measurements are carried out with a BMG Labtech FLUOstar™ or BMG Labtech POLARstar™ instrument (525 nm excitation, 560 nm emission, Bottom Read mode). After incubation of the dye, […] of the test substances in the desired concentrations, or 50 μl of ES buffer for control purposes, are introduced into separate cavities of the measuring plate and incubated for 30 min at room temperature while being shielded from light. The fluorescence intensity of the dye is then measured for 5 min and the fluorescence value F1 of each well is thus determined at a given, constant time. 15 μl of a […] KCl solution ([…]) are then added to each well. The change in fluorescence is subsequently measured until all the relevant measured values have been obtained (mainly 5-30 min). At a given time after KCl application, a fluorescence value F2 is determined, in this case at the time of the fluorescence peak.
For calculation, the fluorescence intensity F2 is compared with the fluorescence intensity F1, and the agonistic activity of the target compound on the potassium channel is determined therefrom. F2 and F1 are calculated as follows:
[formula] In order to determine whether a substance has an agonistic effect,
[formula] for example, can be compared with
[formula] determined by adding to the reaction batch only the buffer solution instead of the substance to be tested, determining the value F1K of the fluorescence intensity, adding the potassium ions as described above and measuring a value F2K of the fluorescence intensity. Then F2K and F1K are calculated as follows: […]
A substance has an agonistic activity on the potassium channel when
[formula] is greater than
[formula] Independently of the comparison of
[formula] it is also possible to conclude that a target compound has agonistic activity if an increase in
[formula] is to be observed as the dosage of the target compound increases. Calculations of EC50 and IC50 values are carried out with the aid of “Prism 4” software (GraphPad Software™). The following compounds were tested by way of example: […]

Compound | EC50 [µM]
O=C(CN1CCn2cccc2C1c1ccc2c(c1)OCCO2)NCc1cccc(C(F)(F)F)c1 (centres unmarked) [Example 8, 2-[1-(2,3-dihydro-benzo[1,4]dioxin-6-yl)-3,4-dihydro-1H-pyrrolo[1,2-a]pyrazin-2-yl]-N-(3-trifluoromethyl-benzyl)-acetamide] | 2.97
CC(NC(=O)CCC(=O)N1CCn2cccc2C1c1ccccc1)c1cccc(C(F)(F)F)c1 (centres unmarked) [Example 81, 4-oxo-4-(1-phenyl-3,4-dihydropyrrolo[1,2-a]pyrazin-2(1H)-yl)-N-(1-(3-(trifluoromethyl)phenyl)ethyl)butanamide] | 2.95
CC(NC(=O)CCC(=O)N1CCn2cccc2C1c1cccs1)c1cccc(C(F)(F)F)c1 (centres unmarked) [Example 82, 4-oxo-4-(1-(thiophen-2-yl)-3,4-dihydropyrrolo[1,2-a]pyrazin-2(1H)-yl)-N-(1-(3-(trifluoromethyl)phenyl)ethyl)butanamide] | 5.28
O=C(CCC(=O)N1CCn2cccc2C1c1ccccc1)NCc1cccs1 (centres unmarked) [Example 83, 4-oxo-4-(1-phenyl-3,4-dihydropyrrolo[1,2-a]pyrazin-2(1H)-yl)-N-(thiophen-2-ylmethyl)butanamide] | 14.3
CC1c2cccn2CCN1C(=O)CCC(=O)NCc1cccc(C(F)(F)F)c1 (centres unmarked) [Example 86, 4-(1-methyl-3,4-dihydropyrrolo[1,2-a]pyrazin-2(1H)-yl-4-oxo-N-(3-trifluoromethyl)benzyl)butanamide] | 11.6
O=C(CC(=O)N1CCn2cccc2C1c1ccccc1)NCc1cccc(C(F)(F)F)c1 (centres unmarked) [Example 89, 3-oxo-3-(1-phenyl-3,4-dihydropyrrolo[1,2-a]pyrazin-2(1H)-yl)-N-(3-(trifluoromethyl)benzyl)propanamide] | 4.55

same assay, conditions: agonistic activity at 10 μM, CHO-K1 cells expressing KCNQ2/3; read-out: BMG AG %@10 μm

Compound | activation at 10 µM [%]
O=C(CCC(=O)N1CCn2cccc2C1c1ccc(Cl)cc1)NCc1cccc(C(F)(F)F)c1 (centres unmarked) [Example 1, 4-[1-(4-chloro-phenyl)-3,4-dihydro-1H-pyrrolo[1,2-a]pyrazin-2-yl]-4-oxo-N-(3-trifluoromethyl-benzyl)-butyramide] | 69
Cc1cccc(C2c3cccn3CCN2C(=O)CCC(=O)NCc2cccc(C(F)(F)F)c2)c1 (centres unmarked) [Example 5, 4-oxo-4-(1-m-tolyl-3,4-dihydro-1H-pyrrolo[1,2-a]pyrazin-2-yl)-N-(3-trifluoromethyl-benzyl)-butyramide] | 28
COc1cccc(C2c3cccn3CCN2CC(=O)NCc2cccc(C(F)(F)F)c2)c1 (centres unmarked) [Example 20, 2-(1-(3-methoxyphenyl)-3,4-dihydropyrrolo[1,2-a]pyrazin-2(1H)-yl)-N-(3-(trifluoromethyl)benzyl)acetamide] | 21
Cc1ccc(C2c3cccn3CCN2CC(=O)NCc2cccc(C(F)(F)F)c2)cc1 (centres unmarked) [Example 37, 2-(1-p-tolyl-3,4-dihydro-1H-pyrrolo[1,2-a]pyrazin-2-yl)-N-(3-trifluoromethyl-benzyl)-acetamide] | 24
CC(NC(=O)CCC(=O)N1CCn2cccc2C1Cc1ccccc1)c1cccc(C(F)(F)F)c1 (centres unmarked) [Example 80, 4-(1-benzyl-3,4-dihydropyrrolo[1,2-a]pyrazin-2(1H)-yl)-4-oxo-N-(1-(3-(trifluoromethyl)phenyl)ethyl)butanamide] | 10
CC1c2cccn2CCN1C(=O)CCC(=O)NCc1ccc(F)cc1 (centres unmarked) [Example 85, N-(4-fluorobenzyl)-4-(1-methyl-3,4-dihydropyrrolo[1,2-a]pyrazin-2(1H)-yl)-4-oxobutanamide] | 0
O=C(CCc1cccc(C(F)(F)F)c1)NCC(=O)N1CCn2cccc2C1c1ccccc1 (centres unmarked) [Example 87] | 3
O=C(CCCc1ccccc1)NCC(=O)N1CCn2cccc2C1c1ccccc1 (centres unmarked) [Example 88, N-(2-oxo-2-(1-phenyl-3,4-dihydropyrrolo[1,2-a]pyrazin-2(1H)-yl)ethyl)-4-phenylbutanamide] | 5
O=C(CC(=O)N1CCn2cccc2C1c1ccccc1)Nc1cccc(C(F)(F)F)c1 (centres unmarked) [Example 90] | -20
O=C(CN1CCn2cccc2C1c1ccccc1)NCc1cccc(C(F)(F)F)c1 (centres unmarked) [Example 91, 2-(1-phenyl-3,4-dihydropyrrolo[1,2-a]pyrazin-2(1H)-yl)-N-(3-(trifluoromethyl)benzyl)acetamide] | 9
O=C(/C=C/c1ccccc1F)NCC(=O)N1CCn2cccc2C1c1ccccc1 (centres unmarked) [Example 92, (E)-3-(2-fluorophenyl)-N-(2-oxo-2-(1-phenyl-3,4-dihydropyrrolo[1,2-a]pyrazin-2(1H)-yl)ethyl)acrylamide] | 7
